According to US20240101576A1, “HETEROCYCLIC INHIBITORS OF EGFR AND/OR HER2, FOR USE IN THE TREATMENT OF CANCER” (Scorpion Therapeutics, Inc., priority 2020, published 2024):

What was measured:
Assay type in all cases: cell-based
[1] = biological target: T1, EGFR exon 20 ASV Ins V769_D770 (Ba/F3 cells) (Homo sapiens, UniProt P00533, INS769ASV); assay: Inhibitor activity on EGFR-dependent cell growth (CellTiter-Glo, 72 h), Ba/F3 EGFR exon 20 ASV Ins; details: read-out: BaF3 ASV IC50
T1 construct: expressed in transfected cells; host or cells: Ba/F3 (murine pro-B cells), retroviral transduction, puromycin selection, IL3-independent pool
In short: (§1)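 IC50s derive from a sigmoidal dose–response fit of CellTiter-Glo signal. The signal was normalised between […]-treated cells and cell-free medium. Ba/F3 mutant-EGFR cells, seeded at 400–800/well depending on the line, had 72 h of exposure to a 10-point, 3-fold compound series.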

EGFR WT (Ba/F3 cells) = biological target: T2, EGFR WT (Ba/F3 cells) (Homo sapiens, UniProt P00533); assay: Inhibitor activity on EGFR-dependent cell growth (CellTiter-Glo, 72 h), Ba/F3 EGFR WT; details: read-out: BaF3 WT IC50
T2 construct: expressed in transfected cells; host or cells: Ba/F3 (murine pro-B cells), retroviral transduction, puromycin selection, maintained with EGF
In short: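 This growth assay used Ba/F3 cells that depend on wild-type EGFR and are kept in EGF without IL3. Compounds were made up as 10 mM DMSO stocks and diluted 3-fold over 10 points. 120 nL went onto 600 cells/well. After 72 hours, 40 μL CellTiter-Glo was added and luminescence read on EnVision after 30 min.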

[2] = biological target: T3, EGFR exon 20 SVD Ins D770_N771 (Ba/F3 cells) (Homo sapiens, UniProt P00533, INS770SVD); assay: Inhibitor activity on EGFR-dependent cell growth (CellTiter-Glo, 72 h), Ba/F3 EGFR exon 20 SVD Ins; details: read-out: BaF3 SVD IC50
T3 construct: expressed in transfected cells; host or cells: Ba/F3 (murine pro-B cells), retroviral transduction, puromycin selection, IL3-independent pool
In short: as §1

[3] = biological target: T1, EGFR exon 20 ASV Ins V769_D770 (Ba/F3 cells); assay: Inhibitor activity on EGFR phosphorylation (pEGFR AlphaLISA, 2 h), Ba/F3 EGFR exon 20 ASV Ins; details: EGFR phosphorylation, AlphaLISA, 2 hours; read-out: ASV IC50 (pEGFR)
Description: Example B. Inhibitor Activity on EGFR phosphorylation (pEGFR)
EGFR mutant Ba/F3 cells were generated by transduction with retrovirus containing vectors expressing EGFR L858R, EGFR exon 19del, EGFR L858R/C797S, EGFR exon 20 NPG Ins D770_N771, EGFR exon 20 ASV Ins V769_D770, or EGFR exon 20 SVD Ins D770_N771 genes along with a puromycin selection marker. Transduced cells are selected with puromycin for 7 days and are then be transferred into culture media without Interleukin 3 (IL3). Surviving cells are confirmed to express EGFR by Western blot and maintained as a pool. CUTO14 cells were obtained from Dr. Robert C. Doebele at the University of Colorado. The IC50 date are included in Table 6 and Table 7.
1.1 Cells are harvested from flask into cell culture medium and the cell number counted.
1.2 Cells are diluted with culture medium to the desired density and 40 μL of cell suspension is added into each well of 384-well cell culture plate and the seeding density is 50K cells/well (Ba/F3) or 12.5K cells/well (CUTO14).
2 Compound Preparation and Treatment
2.1 Test compounds are dissolved to 10 mM in a DMSO stock solution. 45 μL of stock solution is transferred to a 384 polypropylene plate (pp-plate). Perform 3-fold, 10-point dilution via transferring 15 μL compound into 30 μL DMSO using a TECAN (EVO200) liquid handler.
2.2 Spin plates at room temperature at 1,000 RPM for 1 minute.
2.3 Transfer 5 nL of diluted compound from compound source plate into the cell plate.
2.4 After compound treatment for 2 hours, perform pEGFR detection by AlphaLISA for compound treatment plates as described in “Detection” section.
3 Detection by pEGFR AlphaLISA (Perkin-Elmer)
3.1 Plates are removed from incubators and equilibrated at room temperature for 10 minutes, and media was removed
3.2 10 μL of lysis buffer is added and plates shaken at 600 rpm for 1 hr.
3.3 Prepare acceptor mix just before use and dispense 5 μL of acceptor mix to all the wells. Shake 350 rpm for Ihr in the dark
3.4 Prepare donor mix under low light conditions prior to use. Dispense 5 μL of donor mix to all the wells. Mix well on the shaker, seal and wrap in aluminum foil and incubate 1.5 hrs at room temperature in the dark
3.5 Transfer 18.5 μL mixture to OptiPlate 384, and read using an Envision. The IC50 date were included in Table 6 and Table 7.

[4] = biological target: T4, EGFR exon 20 FQEA Ins A763_V764 (Ba/F3 cells) (Homo sapiens, UniProt P00533, INS763FQEA); assay: Inhibitor activity on EGFR-dependent cell growth (CellTiter-Glo, 72 h), Ba/F3 EGFR exon 20 FQEA Ins; details: read-out: BaF3 FQEA IC50
T4 construct: expressed in transfected cells; host or cells: Ba/F3 (murine pro-B cells), retroviral transduction, puromycin selection, IL3-independent pool
In short: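 Compounds, serially diluted 3-fold over 10 points in DMSO and added at 120 nL per well, act on Ba/F3 EGFR-mutant cells for 72 h. Seeding is 800 (exon 19del, FQEA), 600 (L858R/C797S) or 400 (L858R) cells/well. CTG luminescence is fitted with a four-parameter logistic curve to give IC50.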

[5] = biological target: T5, EGFR exon 20 NPG Ins D770_N771 (Ba/F3 cells) (Homo sapiens, UniProt P00533, INS770NPG); assay: Inhibitor activity on EGFR-dependent cell growth (CellTiter-Glo, 72 h), Ba/F3 EGFR exon 20 NPG Ins; details: read-out: BaF3 NPG IC50
T5 construct: expressed in transfected cells; host or cells: Ba/F3 (murine pro-B cells), retroviral transduction, puromycin selection, IL3-independent pool
In short: as §1

T4 sequence (P00533 with tags, fused parts or gaps INS763FQEA): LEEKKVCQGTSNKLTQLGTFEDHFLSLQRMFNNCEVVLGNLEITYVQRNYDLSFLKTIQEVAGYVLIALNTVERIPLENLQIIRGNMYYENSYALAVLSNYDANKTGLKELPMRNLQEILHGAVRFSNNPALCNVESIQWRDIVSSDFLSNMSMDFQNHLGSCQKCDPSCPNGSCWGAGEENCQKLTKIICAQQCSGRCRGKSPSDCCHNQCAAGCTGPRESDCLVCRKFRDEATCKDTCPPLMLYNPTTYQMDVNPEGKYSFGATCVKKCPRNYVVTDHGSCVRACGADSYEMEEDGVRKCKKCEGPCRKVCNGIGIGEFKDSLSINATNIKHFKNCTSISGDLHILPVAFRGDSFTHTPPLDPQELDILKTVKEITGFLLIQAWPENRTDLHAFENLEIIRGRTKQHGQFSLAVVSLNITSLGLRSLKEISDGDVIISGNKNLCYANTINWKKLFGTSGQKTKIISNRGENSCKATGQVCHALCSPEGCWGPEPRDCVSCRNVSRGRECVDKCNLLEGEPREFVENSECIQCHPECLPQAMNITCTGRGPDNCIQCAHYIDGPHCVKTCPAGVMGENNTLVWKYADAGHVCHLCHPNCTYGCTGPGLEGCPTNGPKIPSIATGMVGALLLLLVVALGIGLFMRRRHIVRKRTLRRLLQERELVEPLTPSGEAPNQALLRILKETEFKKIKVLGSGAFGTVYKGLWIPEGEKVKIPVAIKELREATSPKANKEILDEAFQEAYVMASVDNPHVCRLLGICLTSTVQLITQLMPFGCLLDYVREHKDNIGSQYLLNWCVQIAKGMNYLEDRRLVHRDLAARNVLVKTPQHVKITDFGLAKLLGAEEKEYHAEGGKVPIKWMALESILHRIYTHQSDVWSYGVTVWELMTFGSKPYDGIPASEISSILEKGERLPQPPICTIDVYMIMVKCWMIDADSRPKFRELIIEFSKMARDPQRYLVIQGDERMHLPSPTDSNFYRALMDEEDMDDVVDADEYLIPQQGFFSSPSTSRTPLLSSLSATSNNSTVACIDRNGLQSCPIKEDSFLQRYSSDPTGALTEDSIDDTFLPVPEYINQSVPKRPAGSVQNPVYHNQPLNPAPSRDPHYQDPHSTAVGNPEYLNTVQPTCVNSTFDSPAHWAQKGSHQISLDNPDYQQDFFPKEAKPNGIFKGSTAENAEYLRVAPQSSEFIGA
T1 sequence (P00533 with tags, fused parts or gaps INS769ASV): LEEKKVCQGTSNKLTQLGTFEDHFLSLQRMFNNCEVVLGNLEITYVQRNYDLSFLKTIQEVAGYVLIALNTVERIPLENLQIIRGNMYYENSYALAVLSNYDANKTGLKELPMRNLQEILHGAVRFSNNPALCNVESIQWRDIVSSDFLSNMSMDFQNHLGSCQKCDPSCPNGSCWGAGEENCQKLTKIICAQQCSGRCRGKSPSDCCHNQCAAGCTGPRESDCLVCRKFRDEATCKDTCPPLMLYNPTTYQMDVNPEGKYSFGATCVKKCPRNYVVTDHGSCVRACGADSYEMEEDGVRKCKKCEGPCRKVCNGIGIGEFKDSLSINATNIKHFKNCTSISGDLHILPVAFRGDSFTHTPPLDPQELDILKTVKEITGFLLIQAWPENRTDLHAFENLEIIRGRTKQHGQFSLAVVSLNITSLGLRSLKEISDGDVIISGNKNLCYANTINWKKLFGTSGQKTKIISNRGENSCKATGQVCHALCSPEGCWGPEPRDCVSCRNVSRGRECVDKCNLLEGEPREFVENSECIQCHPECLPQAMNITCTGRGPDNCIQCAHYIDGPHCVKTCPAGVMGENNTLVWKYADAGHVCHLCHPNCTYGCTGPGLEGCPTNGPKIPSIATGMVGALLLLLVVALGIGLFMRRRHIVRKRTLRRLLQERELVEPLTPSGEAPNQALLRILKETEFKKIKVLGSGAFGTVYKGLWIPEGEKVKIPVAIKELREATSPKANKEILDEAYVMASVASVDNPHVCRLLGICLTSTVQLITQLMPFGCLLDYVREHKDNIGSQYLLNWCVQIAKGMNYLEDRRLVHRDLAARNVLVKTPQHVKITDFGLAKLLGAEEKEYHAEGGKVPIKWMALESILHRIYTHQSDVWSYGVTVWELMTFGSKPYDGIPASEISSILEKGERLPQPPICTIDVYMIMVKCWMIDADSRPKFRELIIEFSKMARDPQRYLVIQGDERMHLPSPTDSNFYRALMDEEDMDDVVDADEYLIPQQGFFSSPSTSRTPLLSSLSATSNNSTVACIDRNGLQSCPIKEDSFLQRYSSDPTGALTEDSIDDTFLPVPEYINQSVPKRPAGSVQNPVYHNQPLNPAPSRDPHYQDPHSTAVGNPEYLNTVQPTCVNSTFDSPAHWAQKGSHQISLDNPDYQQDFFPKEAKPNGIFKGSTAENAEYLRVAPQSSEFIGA
T2 sequence (P00533 25-1210): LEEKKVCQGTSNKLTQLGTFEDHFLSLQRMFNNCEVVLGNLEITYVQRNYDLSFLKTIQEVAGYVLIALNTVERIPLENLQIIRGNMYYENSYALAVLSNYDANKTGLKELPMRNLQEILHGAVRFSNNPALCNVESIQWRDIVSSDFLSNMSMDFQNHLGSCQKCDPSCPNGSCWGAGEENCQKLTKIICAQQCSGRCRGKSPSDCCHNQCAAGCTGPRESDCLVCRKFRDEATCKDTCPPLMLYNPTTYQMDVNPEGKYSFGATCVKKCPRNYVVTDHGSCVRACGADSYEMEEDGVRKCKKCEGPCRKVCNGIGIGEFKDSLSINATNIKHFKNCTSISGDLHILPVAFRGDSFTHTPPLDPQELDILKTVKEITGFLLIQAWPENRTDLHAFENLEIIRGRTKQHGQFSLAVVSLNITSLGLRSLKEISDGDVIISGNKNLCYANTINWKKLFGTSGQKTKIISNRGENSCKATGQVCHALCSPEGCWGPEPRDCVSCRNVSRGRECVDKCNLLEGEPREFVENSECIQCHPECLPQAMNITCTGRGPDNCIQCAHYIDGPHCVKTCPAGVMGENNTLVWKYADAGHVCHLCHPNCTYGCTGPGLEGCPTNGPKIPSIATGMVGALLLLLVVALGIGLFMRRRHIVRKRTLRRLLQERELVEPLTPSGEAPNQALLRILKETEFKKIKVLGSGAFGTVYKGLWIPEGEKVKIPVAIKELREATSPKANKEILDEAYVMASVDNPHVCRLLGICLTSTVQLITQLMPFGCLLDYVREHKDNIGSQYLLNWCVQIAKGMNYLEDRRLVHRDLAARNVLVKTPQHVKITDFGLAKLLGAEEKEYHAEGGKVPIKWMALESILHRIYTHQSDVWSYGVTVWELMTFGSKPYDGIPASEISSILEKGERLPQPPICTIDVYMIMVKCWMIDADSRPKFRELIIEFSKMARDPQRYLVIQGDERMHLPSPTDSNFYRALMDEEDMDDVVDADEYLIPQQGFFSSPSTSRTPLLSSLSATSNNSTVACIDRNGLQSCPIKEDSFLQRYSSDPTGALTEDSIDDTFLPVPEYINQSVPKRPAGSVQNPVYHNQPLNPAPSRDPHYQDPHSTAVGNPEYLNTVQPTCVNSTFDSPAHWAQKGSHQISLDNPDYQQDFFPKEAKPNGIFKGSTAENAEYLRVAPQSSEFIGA
T5 sequence (P00533 with tags, fused parts or gaps INS770NPG): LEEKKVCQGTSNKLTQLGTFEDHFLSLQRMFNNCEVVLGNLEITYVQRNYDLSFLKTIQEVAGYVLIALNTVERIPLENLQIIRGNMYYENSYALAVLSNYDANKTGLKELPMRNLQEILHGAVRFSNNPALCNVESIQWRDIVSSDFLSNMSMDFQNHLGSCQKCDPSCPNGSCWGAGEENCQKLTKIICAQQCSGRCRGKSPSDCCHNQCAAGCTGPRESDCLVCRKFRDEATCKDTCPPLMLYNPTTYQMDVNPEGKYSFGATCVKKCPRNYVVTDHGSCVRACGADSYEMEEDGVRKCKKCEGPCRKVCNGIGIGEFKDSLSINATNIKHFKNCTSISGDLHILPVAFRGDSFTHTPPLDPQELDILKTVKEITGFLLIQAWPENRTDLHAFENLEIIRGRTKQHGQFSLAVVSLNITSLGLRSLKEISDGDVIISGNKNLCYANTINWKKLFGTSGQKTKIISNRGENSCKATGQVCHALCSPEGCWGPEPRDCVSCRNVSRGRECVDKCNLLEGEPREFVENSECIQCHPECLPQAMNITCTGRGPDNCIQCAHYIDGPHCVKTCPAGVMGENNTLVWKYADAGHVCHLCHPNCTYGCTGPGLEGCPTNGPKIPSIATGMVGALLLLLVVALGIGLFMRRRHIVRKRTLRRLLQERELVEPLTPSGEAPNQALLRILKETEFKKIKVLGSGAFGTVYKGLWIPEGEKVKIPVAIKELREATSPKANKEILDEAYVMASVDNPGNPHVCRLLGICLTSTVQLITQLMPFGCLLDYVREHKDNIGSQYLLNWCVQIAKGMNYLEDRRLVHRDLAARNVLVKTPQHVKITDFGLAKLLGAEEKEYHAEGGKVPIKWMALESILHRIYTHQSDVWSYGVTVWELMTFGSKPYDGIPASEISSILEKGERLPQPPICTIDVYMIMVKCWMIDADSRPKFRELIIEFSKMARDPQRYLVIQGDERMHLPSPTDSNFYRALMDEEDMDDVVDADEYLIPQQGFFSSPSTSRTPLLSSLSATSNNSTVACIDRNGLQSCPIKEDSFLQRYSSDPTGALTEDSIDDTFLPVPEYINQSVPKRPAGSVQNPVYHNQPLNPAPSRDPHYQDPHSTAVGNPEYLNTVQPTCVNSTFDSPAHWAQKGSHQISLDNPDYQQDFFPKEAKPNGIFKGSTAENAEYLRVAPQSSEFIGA

SMILES	IC50 [1] [nM]	IC50 (EGFR WT (Ba/F3 cells)) [nM]	IC50 [2] [nM]	IC50 [3] [nM]	IC50 [4] [nM]	IC50 [5] [nM]
COc1c(Cl)cccc1Nc1c(-c2ccnc(N)n2)[nH]c2c1C(=O)NC[C@@H]2C [186a]	< 100	100 to 1000	< 100	< 100	< 100	–
COc1c(Cl)cccc1Nc1c(-c2ccnc(N)n2)[nH]c2c1C(=O)NC[C@H]2C [186b]	< 100	100 to 1000	< 100	< 100	100 to 1000	–
COc1c(Cl)cccc1Nc1c(-c2ccnc(N)n2)[nH]c2c1C(=O)N[C@@H](C)C2 [187a]	100 to 1000	> 1000	100 to 1000	< 100	100 to 1000	–
COc1c(Cl)cccc1Nc1c(-c2ccnc(N)n2)[nH]c2c1C(=O)N[C@H](C)C2 [187b]	< 100	100 to 1000	< 100	< 100	100 to 1000	–
COc1c(Cl)cccc1Nc1c(-c2ccnc(N)c2F)[nH]c2c1C(=O)NCC2 [Compound 686, 2-(2-amino-3-fluoropyridin-4-yl)-3-[(3-chloro-2-methoxyphenyl)amino]-1H,5H,6H,7H-pyrrolo[3,2-c]pyridin-4-one; trifluoroacetic acid]	< 100	100 to 1000	< 100	< 100	100 to 1000	–
Cc1c(F)cccc1Nc1c(-c2nc(N)ncc2F)[nH]c2c1C(=O)NCC2 [Compound 689, 2-(2-amino-5-fluoropyrimidin-4-yl)-3-[(3-fluoro-2-methylphenyl)amino]-1H,5H,6H,7H-pyrrolo[3,2-c]pyridin-4-one]	> 1000	–	> 1000	100 to 1000	100 to 1000	–
COc1c(Cl)cccc1Nc1c(-c2nc(N)ncc2C#N)[nH]c2c1C(=O)NCC2 [Compound 693, 2-amino-4-[3-[(3-chloro-2-methoxyphenyl)amino]-4-oxo-1H,5H,6H,7H-pyrrolo[3,2-c]pyridin-2-yl]pyrimidine-5-carbonitrile]	> 1000	> 1000	> 1000	> 1000	> 1000	–
COc1c(F)cccc1Nc1c(-c2ccnc3ccc(NC4(C)CC4)nc23)[nH]c2c1C(=O)NCC2 [Compound 695, 3-[(3-fluoro-2-methoxyphenyl)amino]-2-[6-[(1-methylcyclopropyl)amino]-1,5-naphthyridin-4-yl]-1H,5H,6H,7H-pyrrolo[3,2-c]pyridin-4-one; formic acid]	< 100	< 100	< 100	< 100	< 100	–
CCOc1c(Cl)cccc1Nc1c(-c2ccnc(N)n2)[nH]c2c1C(=O)NCC2 [Compound 700, 2-(2-aminopyrimidin-4-yl)-3-[(3-chloro-2-ethoxyphenyl)amino]-1H,5H,6H,7H-pyrrolo[3,2-c]pyridin-4-one; trifluoroacetic acid]	–	> 1000	–	100 to 1000	> 1000	–
Nc1nccc(-c2[nH]c3c(c2Nc2ccc(Cl)cc2)C(=O)NCC3)n1 [compound 192]	–	> 1000	–	> 1000	> 1000	–
Nc1nccc(-c2[nH]c3c(c2Nc2cccc(Cl)c2)C(=O)NCC3)n1 [compound 193]	–	100 to 1000	–	< 100	100 to 1000	–
Nc1nccc(-c2[nH]c3c(c2Nc2ccccc2Cl)C(=O)NCC3)n1 [compound 194]	–	100 to 1000	–	< 100	100 to 1000	–
COc1c(C)cccc1Nc1c(-c2ccnc(N)n2)[nH]c2c1C(=O)NCC2 [compound 305]	–	> 1000	–	< 100	100 to 1000	–
COc1c(Cl)cccc1Nc1c(-c2ccnc3ccc(O[C@H]4CCCOC4)nc23)[nH]c2c1C(=O)NCC2 [compound 741, 3-[(3-chloro-2-methoxyphenyl)amino]-2-[6-[(3S)-oxan-3-yloxy]-1,5-naphthyridin-4-yl]-1H,5H,6H,7H-pyrrolo[3,2-c]pyridin-4-one; formic acid]	< 100	< 100	< 100	–	< 100	< 100
COc1c(Cl)cccc1Nc1c(-c2ccnc3ccc(O[C@@H]4CCCOC4)nc23)[nH]c2c1C(=O)NCC2 [compound 742, 3-[(3-chloro-2-methoxyphenyl)amino]-2-[6-[(3R)-oxan-3-yloxy]-1,5-naphthyridin-4-yl]-1H,5H,6H,7H-pyrrolo[3,2-c]pyridin-4-one; formic acid]	< 100	100 to 1000	< 100	–	< 100	< 100
COc1c(Cl)cccc1Nc1c(-c2ccnc3ccc(O[C@@H]4CCOC4)nc23)[nH]c2c1C(=O)NCC2 [compound 743, 3-[(3-chloro-2-methoxyphenyl)amino]-2-[6-[(3R)-oxolan-3-yloxy]-1,5-naphthyridin-4-yl]-1H,5H,6H,7H-pyrrolo[3,2-c]pyridin-4-one]	< 100	100 to 1000	< 100	–	< 100	< 100
CCO[C@H](C)c1ccc2nccc(-c3[nH]c4c(c3Nc3cccc(Cl)c3OC)C(=O)NCC4)c2n1 [compound 753, 3-[(3-chloro-2-methoxyphenyl)amino]-2-[6-[(1R)-1-ethoxyethyl]-1,5-naphthyridin-4-yl]-1H,5H,6H,7H-pyrrolo[3,2-c]pyridin-4-one; trifluoroacetic acid]	< 100	< 100	< 100	–	< 100	< 100
COc1c(Cl)cccc1Nc1c(-c2ccnc3ccc(OCC4(C(F)(F)F)CC4)nc23)[nH]c2c1C(=O)NCC2 [compound 758, 3-[(3-chloro-2-methoxyphenyl)amino]-2-(6-[[1-(trifluoromethyl)cyclopropyl]methoxy]-1,5-naphthyridin-4-yl)-1H,5H,6H,7H-pyrrolo[3,2-c]pyridin-4-one]	100 to 1000	100 to 1000	100 to 1000	–	100 to 1000	100 to 1000
CCOc1ccc2nccc(-c3[nH]c4c(c3Nc3cccc(Cl)c3OC)C(=O)NCC4)c2n1 [compound 761, 3-[(3-chloro-2-methoxyphenyl)amino]-2-(6-ethoxy-1,5-naphthyridin-4-yl)-1H,5H,6H,7H-pyrrolo[3,2-c]pyridin-4-one]	< 100	< 100	< 100	–	< 100	< 100
COc1c(Cl)cccc1Nc1c(-c2ccnc3ccc(OCC(F)(F)F)nc23)[nH]c2c1C(=O)NCC2 [compound 763, 3-[(3-chloro-2-methoxyphenyl)amino]-2-[6-(2,2,2-trifluoroethoxy)-1,5-naphthyridin-4-yl]-1H,5H,6H,7H-pyrrolo[3,2-c]pyridin-4-one]	< 100	100 to 1000	< 100	–	100 to 1000	100 to 1000
